Consider 9 molecules from PMC5464333, “The binding orientations of structurally-related ligands can differ; A cautionary note” (Neuropharmacology, 2017).

One assay concerns the target T1, 5-HT3 receptor (Homo sapiens, UniProt P46098).
T1 construct: expressed in transfected cells; host or cells: HEK293, transient, pcDNA3.1
T1 sequence (P46098 24-478): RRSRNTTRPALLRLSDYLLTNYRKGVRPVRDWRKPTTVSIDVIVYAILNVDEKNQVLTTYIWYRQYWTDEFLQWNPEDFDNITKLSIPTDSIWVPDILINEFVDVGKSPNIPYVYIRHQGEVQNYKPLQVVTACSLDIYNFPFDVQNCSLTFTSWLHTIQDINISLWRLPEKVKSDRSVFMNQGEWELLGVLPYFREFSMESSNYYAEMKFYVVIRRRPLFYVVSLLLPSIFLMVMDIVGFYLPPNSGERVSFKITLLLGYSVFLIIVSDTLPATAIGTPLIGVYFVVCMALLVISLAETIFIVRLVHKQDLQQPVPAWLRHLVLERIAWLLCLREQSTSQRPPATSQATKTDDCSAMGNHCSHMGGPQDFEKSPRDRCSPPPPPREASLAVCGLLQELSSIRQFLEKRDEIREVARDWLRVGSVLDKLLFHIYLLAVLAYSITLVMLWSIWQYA
Description: Affinities from binding tropisetron, granisetron and their analogues at 5-HT3 receptors. The settings on record: for Ki / pKi Mean ± SEM: 5-HT3 receptor; for Fold change: Ki relative to parent scaffold. The protocol:
(§1) Human 5-HT3A subunit cDNA (Accession: P46098, kindly provided by J. Peters, Dundee University, UK) was cloned into pcDNA3.1 for expression in HEK293 cells. […] Cells were transiently transfected with either of these cDNA constructs using polyethyleneimine (PEI: 25 kDa, linear, powder, Polysciences Inc., Eppelheim, Germany). 30 μl of PEI (1 mg ml^−1), 5 μg cDNA and 1 ml DMEM were incubated for 10 min at room temperature, added drop wise to a 90 mm plate of 70–80% conﬂuent HEK293 cells, and incubated for 2–3 days before use.
(§2) Transfected HEK 293 cells were scraped into 0.6 ml of ice-cold 10 mM HEPES buffer (pH 7.4) and frozen. After thawing, they were washed with HEPES buffer, homogenised by trituration through a 25 gauge (0.5 mm) needle, and 50 μg of cell suspension incubated in 0.5 ml HEPES buffer containing different concentrations of radioligand. […] Equilibrium reactions were incubated on ice for at least 1 h and terminated by vacuum filtration onto Whatman GF/B filters wetted with 0.3% polyethyleneimine, followed by two rapid washes with 2.5 ml ice cold buffer. Radioactivity was measured by scintillation in Ultima Gold XR (Perkin Elmer, Waltham, MA) using a Tri-Carb 2100 TR (PerkinElmer) scintillation counter. Final counts were monitored to ensure that binding never exceeded 10% of the added concentrations of radioligands.

The subject of assay [1] is α7 nACh receptor. The settings on record: α7 nACh receptor; ref Macor et al., 2001; cited from earlier work.
For assay [2], the target named is α7 nACh receptor (UniProt P22770+P23979, M226I/T225I). The protocol:
as §1, §2
All data were analysed using GraphPad Prism v5. Individual saturation binding experiments were fitted to the equation below and the fitted values averaged to yield mean ± sem of n independent experiments: y=[…] where Bmax is maximum binding at equilibrium, Kd is the equilibrium dissociation constant and [L] is the free concentration of radioligand. Affinities were compared using 1-way ANOVA and a Dunnett's Post-Test.

Assay [3] relates to Untransfected HEK293 cells. As to the kind of experiment: Radioligand binding at untransfected HEK293 cells. On the set-up: species or system human. As to the method:
Human embryonic kidney (HEK) 293 cells were grown on 90 mm round tissue culture plates as monolayers in DMEM/F12 (Gibco, Life Technologies, CA, USA) supplemented with 10% fetal bovine serum (FBS; Sigma Aldrich) at 37 °C in a moist atmosphere containing 5% CO2.

α7 nACh receptor (UniProt P22770+P23979, M226I/T225I), sequence (P22770+P23979 fused P22770:T225I/P22770:M226I): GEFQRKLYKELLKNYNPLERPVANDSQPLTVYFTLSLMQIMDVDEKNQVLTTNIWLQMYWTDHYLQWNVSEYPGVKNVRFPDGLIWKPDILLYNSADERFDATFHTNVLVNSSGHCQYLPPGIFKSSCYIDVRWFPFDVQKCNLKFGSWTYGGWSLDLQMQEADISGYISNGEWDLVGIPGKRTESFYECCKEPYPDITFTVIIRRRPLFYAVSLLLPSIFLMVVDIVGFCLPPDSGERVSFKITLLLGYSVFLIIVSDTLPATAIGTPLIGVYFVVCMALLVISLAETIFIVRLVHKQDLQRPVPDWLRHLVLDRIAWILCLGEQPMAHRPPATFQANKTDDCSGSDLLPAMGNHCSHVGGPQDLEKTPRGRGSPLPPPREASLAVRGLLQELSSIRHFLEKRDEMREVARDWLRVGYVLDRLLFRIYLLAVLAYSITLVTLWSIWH

What is called Ki is the equilibrium dissociation constant of an inhibitor or competing ligand from its target. For `COc1ccc2[nH]cc(C(=O)O[C@H]3C[C@H]4CC[C@@H](C3)N4C)c2c1` [Compound 1, (1R,3r,5S)-8-methyl-8-azabicyclo[3.2.1]octan-3-yl 5-methoxy-1H-indole-3-carboxylate], on 5-HT3 receptor, the affinity, expressed as Ki, was 95.5 nM; the “pKi Mean ± SEM” value came out at 7.02 ± 0.03; the Fold change amounted to 133 fold.

Regarding `COc1ccc2c(C(=O)O[C@H]3C[C@H]4CC[C@@H](C3)N4C)c[nH]c2c1` [Compound 2, (1R,3r,5S)-8-methyl-8-azabicyclo[3.2.1]octan-3-yl 6-methoxy-1H-indole-3-carboxylate], on 5-HT3 receptor, the Ki is 182 nM, the “pKi Mean ± SEM” value is reported as 6.74 ± 0.04 and the Fold change is 253 fold.

For `COc1cccc2c(C(=O)O[C@H]3C[C@H]4CC[C@@H](C3)N4C)c[nH]c12` [Compound 3, (1R,3r,5S)-8-methyl-8-azabicyclo[3.2.1]octan-3-yl 7-methoxy-1H-indole-3-carboxylate], on 5-HT3 receptor, the Ki turned out to be 30.2 nM, the “pKi Mean ± SEM” value is given as 7.52 ± 0.12 and the Fold change is 42 fold.

For `O=C(O[C@H]1C[C@H]2CC[C@@H](C1)N2Cc1ccccc1)c1c[nH]c2ccccc12` [Compound 4, (1R,3r,5S)-8-benzyl-8-azabicyclo[3.2.1]octan-3-yl 1H-indole-3-carboxylate], on 5-HT3 receptor, the Ki stood at 1440 nM, the “pKi Mean ± SEM” value came to 5.84 ± 0.20 and the Fold change is given as 2007 fold.

`COc1cccc2c(C(=O)N[C@H]3C[C@H]4CCC[C@@H](C3)N4C)nn(C)c12` [Compound 7, 7-methoxy-1-methyl-N-((1R,3r,5S)-9-methyl-9-azabicyclo[3.3.1]nonan-3-yl)-1H-indazole-3-carboxamide]: at 5-HT3 receptor, the Ki is 120 nM, the “pKi Mean ± SEM” value turned out to be 6.92 ± 0.24 and the Fold change is listed as 255 fold.

As to `CN1C2CCC1CC(NC(=O)c1nn(C)c3ccccc13)C2` (centres unmarked) [LY-278,584], the binding entry in the assay with α7 nACh receptor [1] is “cannot be detected”.

As a reminder, the Kd is a measure of binding affinity in units of concentration. Low values mean higher affinity, high ones lower affinity. On α7 nACh receptor [2], `Clc1ccc(C2CC3CCC2N3)cn1` (centres unmarked) [[^3H]epibatidine] returned a dissociation constant Kd of 8.81 ± 0.13 nM.

On to `CN1C2CCCC1CC(NC(=O)c1nn(C)c3ccccc13)C2` (centres unmarked) [[^3H]granisetron], for which, in assay [3], the saturable binding result is given as “no saturable binding”.

In the case of `[3H]C([3H])([3H])N1C2CCC1CC(OC(=O)c1c[nH]c3ccccc13)C2` (centres unmarked) [[^3H]tropisetron], the saturation binding entry on α7 nACh receptor [2] was “could not be detected”. Moreover, the saturable binding result in assay [3] was “no saturable binding”.
